# According to PMC10178769, “A Facile Synthesis and Molecular Characterization of Certain New Anti-Proliferative Indole-Based Chemical Entities” (International Journal of Molecular Sciences, 2023):
# Tests used:
# [1] = test system: MCF-7 breast cancer cells; assay: MTT assay, antiproliferative activity, MCF-7; assay type: cell-based; settings: Homo sapiens, MCF7, 48 h, read-out: Cytotoxicity IC50 MCF7
# Procedure: (§1) The cancer cell growth inhibitory activity of the synthesized compound was tested against three human cancer cell lines, namely, breast cancer (MCF-7), colon cancer (HCT116) and lung cancer (A549), as well as non-tumorigenic human lung cell line (WI38) to estimate the selectivity for tumor cells.
# (§2) Anti-proliferative activity in compounds 4a–q were tested in three cancerous cell lines (MCF-7 breast cancer cells, A549 lung carcinoma, HCT human colon cancer cells) and in WI-38 human lung fibroblast cells. Cells were plated at a density of 1.2–1.8 × 10,000 cells/well in a volume of 100 µL complete growth medium and were incubated at 37 °C for 24 h. Cells were then treated with serially diluted tested compound and incubated at 37 °C for 48 h. Twenty microliters of 3-(4,5-dimethylthiazol-2-yl)-2,5-diphenyltetrazolium bromide (MTT) (2.5 mg/mL) dissolved in PBS were added to the cells and cells were further incubated for 4 h at 37 °C. To dissolve formazan crystals, MTT solutions were completely removed and 100 μL DMSO was added. The absorbance was detected at 540 nm using a Spectramax 250 microplate reader (Molecular device, San Jose, CA, USA), and viability (%) was calculated as [optical density (OD) of treated group/OD of control group] × 100.
# [2] = test system: HCT116 colon cancer cells; assay: MTT assay, antiproliferative activity, HCT116; assay type: cell-based; settings: Homo sapiens, HCT-116, 48 h, read-out: Cytotoxicity IC50 HCT116
# Procedure: as §1, §2
# [3] = test system: A549 lung carcinoma cells; assay: MTT assay, antiproliferative activity, A549; assay type: cell-based; settings: Homo sapiens, 48 h, read-out: Cytotoxicity IC50 A549
# Procedure: as §1, §2
# [4] = MTT assay, toxicity on normal cells WI38; assay type: cell-based, human; settings: WI-38 lung fibroblast cells (non-tumorigenic); MTT, 48 h, non-tumorigenic human lung cell line; read-out: Cytotoxicity IC50 WI38
# Procedure: as §1, §2
# MCF-7, A549, and HCT = assay: MTT assay, cytotoxicity over the three cancer cell lines; assay type: cell-based; settings: Homo sapiens, average over MCF-7, HCT116, A549, 48 h
# Procedure: The title compounds 4a–q were subjected to MTT assay to determine their cytotoxicity, and their in vitro antiproliferative activity was examined as well. The cancer cell growth inhibitory activity of the synthesized compound was tested against three human cancer cell lines, namely, breast cancer (MCF-7), colon cancer (HCT116) and lung cancer (A549), as well as non-tumorigenic human lung cell line (WI38) to estimate the selectivity for tumor cells. Staurosporine was used as a reference drug.
# as §2, with “To dissolve formazan crystals, MTT solutions were completely removed and 100 μL DMSO was added.” left out
# [5] = test system: WI-38 human lung fibroblast cells; assay: MTT assay, toxicity on normal cells WI38; assay type: cell-based; settings: WI38 versus cancer cells
# Procedure: as §1, §2
# MCF-7 cells [6] = assay: Annexin V-FITC apoptosis flow cytometry; assay type: cell-based, human; settings: 10 μm, 48 h
# Procedure: To detect the apoptotic potential of our compound of choice, 4e, an Annexin V-FITC Apoptosis Detection Kit (BioVision, Mountain View, CA, USA) was used based on the manufacturer’s protocol using a dose of 10 μm for 48 h.
# MCF-7 cells [7] = assay: Cell cycle analysis, propidium iodide flow cytometry; assay type: cell-based, human; settings: 10 µm, 48 h, control 34.72%
# Procedure: To evaluate if the antiproliferative effect of 4e was due to the disturbance of the cell cycle, cells were treated with 10 µm for 48 h. […] Therefore, it is possible that the antiproliferative effect of 4e is due to S-phase cell cycle arrest.
# To detect cell cycle status after treating cells with 4e, 1 × 10^6 cells were cultured in six-well plates for twenty-four hours per cell and were then treated with 10 μm of 4e for 48 h. Cells were then washed with phosphate-buffered saline. Cells were then fixed with 70% of cold ethanol and kept at 4 °C overnight. Cell analysis was then analyzed following the manifacorere protocol, using a Propidium Iodide Flow Cytometry Kit for Cell Cycle Analysis (Abcam, Waltham, MA, USA).
Compound,IC50 [1] [µM],IC50 [2] [µM],IC50 [3] [µM],IC50 at 48 h [4] [µM],melting point [°C],"IC50 (MCF-7, A549, and HCT) [µM]",selectivity against non-tumorigenic cell line (WI38) (in words) [5],Annexin-V and 7-AAD positive cell populations (MCF-7 cells [6]),cell population in the S phase (MCF-7 cells [7]) [%]
"COc1ccc2[nH]c(C(=O)N(N)Cc3ccc([N+](=O)[O-])cc3)cc2c1 [4p, N-(4-Nitrobenzyl)-5-methoxy-1H-indole-2-carbohydrazide]",7.01 ± 0.34,19.4 ± 0.93,3.02 ± 0.16,17.4 ± 0.99,213,–,–,–,–
"COc1ccc2[nH]c(C(=O)N(N)Cc3ccccc3)cc2c1 [4d, N-Benzyl-5-methoxy-1H-indole-2-carbohydrazide]",3.23 ± 0.16,66.2 ± 3.17,5.69 ± 0.31,95.2 ± 5.39,210,–,–,–,–
"COc1ccc2[nH]c(C(=O)N(N)Cc3ccc(C(F)(F)F)cc3)cc2c1 [4j, N-(4-(Trifluoromethyl)benzyl)-5-methoxy-1H-indole-2-carbohydrazide]",3.27 ± 0.16,9.16 ± 0.44,6.78 ± 0.37,97.9 ± 5.54,220,–,–,–,–
"COc1ccc2[nH]c(C(=O)N(N)Cc3ccc(F)cc3)cc2c1 [4h, N-(4-Fluorobenzyl)-5-methoxy-1H-indole-2-carbohydrazide]",13.1 ± 0.63,207 ± 9.94,23.9 ± 1.3,64.1 ± 3.63,175,–,–,–,–
"NN(Cc1ccc(C(F)(F)F)cc1)C(=O)c1cc2ccccc2[nH]1 [4i, N-(4-(Trifluoromethyl)benzyl)-1H-indole-2-carbohydrazide]",23.9 ± 1.15,52.2 ± 2.5,11.6 ± 0.63,25.3 ± 1.43,190,–,–,–,–
"NN(Cc1ccc(Cl)cc1)C(=O)c1cc2ccccc2[nH]1 [4a, N-(4-Chlorobenzyl)-1H-indole-2-carbohydrazide]",21.7 ± 1.04,41.3 ± 1.98,5.9 ± 0.32,66.2 ± 3.75,233,–,–,–,–
"NN(Cc1ccc(Br)cc1)C(=O)c1cc2ccccc2[nH]1 [4m, N-(4-Bromobenzyl)-1H-indole-2-carbohydrazide]",62.9 ± 3.01,17.5 ± 0.84,12.9 ± 0.7,46.1 ± 2.61,238,–,–,–,–
"NN(Cc1ccc([N+](=O)[O-])cc1)C(=O)c1cc2ccccc2[nH]1 [4o, N-(4-Nitrobenzyl)-1H-indole-2-carbohydrazide]",3.66 ± 0.18,2.41 ± 0.12,22.3 ± 1.21,86 ± 4.87,223,–,–,–,–
"COc1ccc2[nH]c(C(=O)N(N)Cc3ccc(C#N)cc3)cc2c1 [4l, N-(4-Cyanobenzyl)-5-methoxy-1H-indole-2-carbohydrazide]",81.4 ± 3.9,5.02 ± 0.24,26.6 ± 1.45,18.5 ± 1.05,248,–,–,–,–
"NN(Cc1ccc(F)cc1)C(=O)c1cc2ccccc2[nH]1 [4g, N-(4-Fluorobenzyl)-1H-indole-2-carbohydrazide]",8.31 ± 0.4,12.3 ± 0.59,17 ± 0.93,117 ± 6.65,209,–,–,–,–
"N#Cc1ccc(CN(N)C(=O)c2cc3ccccc3[nH]2)cc1 [4k, N-(4-Cyanobenzyl)-1H-indole-2-carbohydrazide]",9.21 ± 0.44,39.1 ± 1.88,2.65 ± 0.14,30.8 ± 1.74,202,–,–,–,–
"COc1ccc2[nH]c(C(=O)N(N)Cc3ccc(C)cc3)cc2c1 [4q, N-(4-Methylbenzyl)-5-methoxy-1H-indole-2-carbohydrazide]",1.01 ± 0.05,6.45 ± 0.31,2.4 ± 0.13,56.2 ± 3.18,166,3.28 ± 2.3,–,–,–
"NN(Cc1ccccc1)C(=O)c1cc2ccccc2[nH]1 [4c, N-Benzyl-1H-indole-2-carbohydrazide]",62 ± 2.97,32.5 ± 1.56,25.3 ± 1.38,50.4 ± 2.86,237,–,–,–,–
"COc1ccc2[nH]c(C(=O)N(N)Cc3cc(C(F)(F)F)cc(C(F)(F)F)c3)cc2c1 [4f, N-(3,5-Bis(trifluoromethyl)benzyl)-5-methoxy-1H-indole-2-carbohydrazide]",58.1 ± 2.78,9.79 ± 0.47,8.33 ± 0.45,24.4 ± 1.38,195,–,–,–,–
"NN(Cc1cc(C(F)(F)F)cc(C(F)(F)F)c1)C(=O)c1cc2ccccc2[nH]1 [4e, N-(3,5-Bis(trifluoromethyl)benzyl)-1H-indole-2-carbohydrazide]",0.57 ± 0.03,1.95 ± 0.09,3.49 ± 0.19,87.2 ± 4.94,204,2,exhibited selectivity toward cancer cells,significant increase,48.72
"COc1ccc2[nH]c(C(=O)N(N)Cc3ccc(Br)cc3)cc2c1 [4n, N-(4-Bromobenzyl)-5-methoxy-1H-indole-2-carbohydrazide]",141 ± 6.74,61 ± 2.92,16.7 ± 0.91,252 ± 14.3,228,–,–,–,–
"COc1ccc2[nH]c(C(=O)N(N)Cc3ccc(Cl)cc3)cc2c1 [4b, N-(4-Chlorobenzyl)-5-methoxy-1H-indole-2-carbohydrazide]",11.5 ± 0.55,190 ± 9.12,49.2 ± 2.68,163 ± 9.25,225,–,–,–,–
